Where “and” joins values, the source holds several entries; their conditions need not be identical. Equal values may be shown once.
What was measured:
[1] = target: rhFUCA1 (Homo sapiens (Human), UniProt P04066); assay: In vitro fucosidase inhibition (4MU-FUC fluorescence); type: biochemical; conditions: 1 ng/mL rhFUCA1, 640 nM 4MU-FUC, pH 4.5, 37° C., 30 minutes
Method: Fucosidase inhibition was assessed by preparing a reaction mixture of 50 mM phosphate-citrate pH 4.5, 5 mM MgCl2, 640 nM 4-methylumbelliferyl-alpha-L-fucopyranoside (4MU-FUC), 1 ng/mL rhFUCA1 (R&D Systems), and compound II, III, or IV:
Reactions (100 μL) were incubated at 37° C. for 30 minutes and then quenched with the same volume of 600 mM citrate-carbonate buffer, pH 9. Fluorescence was measured by excitation at 360 nm and emission at 450 nm.

[2] = tested on: HepG2 cells; assay: Metabolic labeling with tagged-fucose, flow cytometry; type: cell-based, human
Method: Perturbations in glycoprotein metabolism were assayed by growing HepG2 cells without fucosidase inhibitors, or with compound II, III, or IV (see Example 2) for 24 hours, and then adding (3S,4R,5R,6S)-6-ethynyltetrahydro-2H-pyran-2,3,4,5-tetrayl tetra acetate, a per-acetylated analog of fucose containing an alkyne moiety in place of the 5′-methyl group (Click-iT™ Fucose Alkyne, Molecular Probes, Eugene, Oreg.) for an additional 48 hours. Cells were fixed, permeabilized, washed, and stained with Alexa Fluor 488 Azide to orthogonally label glycoproteins incorporating the fucose analog. Cells were then analyzed for fluorescence using a Guava 6HT-2L flow cytometer (ThermoFisher).

[3] = Pharmacokinetics in mouse plasma; type: in vivo; conditions: for Conc. of cmpd II: individual animal
Method: To assess the pharmacokinetics of compound II (see Example 2) in mouse plasma, compound II was administered intravenously at a dosage of 1 mg/kg. Compound II concentration was measured at various time points up to 24 hours after administration, and the results are provided in Table 5.

[4] = Biodistribution in mouse liver and colon; type: in vivo; conditions: for Conc. of cmpd II in colon / Mean conc. of cmpd II in colon: mouse colon; for Conc. of cmpd II in colon / Conc. of cmpd II in liver: individual animal; for Conc. of cmpd II in liver / Mean conc. of cmpd II in liver: mouse liver
Method: To assess the biodistribution of compound II (see Example 2) in mouse liver and colon, compound II was administered intravenously at a dosage of 1 mg/kg.

[5] = tested on: human hepatocarcinoma cell line HepG2; assay: Orthotopic model of human hepatocellular carcinoma; type: in vivo, nude mice
Method: To assess the compounds in vivo, an orthotopic model of human hepatocellular carcinoma was used. The orthotopic tumor model was generated by implanting human hepatocarcinoma cell line HepG2 into nude mice and allowing the tumor cells to grow in vivo.
The efficacy study was carried out using 10 mice per group and two dosage regimens. Compound II (see Example 2) was administered by oral gavage (po) at a dosage of 175 mg/kg once daily for 3 weeks (QDx21) or at a dosage of 87.5 mg/kg twice daily for 3 weeks (BIDx21). Vehicle (100 μL) was administered to control animals.

[6] = 87.5 mg/kg po twice daily (BIDx21), Day 0
[7] = 87.5 mg/kg po twice daily (BIDx21), Day 2
[8] = 87.5 mg/kg po twice daily (BIDx21), Day 5
[9] = 87.5 mg/kg po twice daily (BIDx21), Day 9
[10] = 87.5 mg/kg po twice daily (BIDx21), Day 12
[11] = 87.5 mg/kg po twice daily (BIDx21), Day 16
[12] = 87.5 mg/kg po twice daily (BIDx21), Day 20
[13] = 175 mg/kg po once daily (QDx21), Day 0
[14] = 175 mg/kg po once daily (QDx21), Day 2
[15] = 175 mg/kg po once daily (QDx21), Day 5
[16] = 175 mg/kg po once daily (QDx21), Day 9
[17] = 175 mg/kg po once daily (QDx21), Day 12
[18] = 175 mg/kg po once daily (QDx21), Day 16
[19] = 175 mg/kg po once daily (QDx21), Day 20

Chain of rhFUCA1 (P04066 32-466): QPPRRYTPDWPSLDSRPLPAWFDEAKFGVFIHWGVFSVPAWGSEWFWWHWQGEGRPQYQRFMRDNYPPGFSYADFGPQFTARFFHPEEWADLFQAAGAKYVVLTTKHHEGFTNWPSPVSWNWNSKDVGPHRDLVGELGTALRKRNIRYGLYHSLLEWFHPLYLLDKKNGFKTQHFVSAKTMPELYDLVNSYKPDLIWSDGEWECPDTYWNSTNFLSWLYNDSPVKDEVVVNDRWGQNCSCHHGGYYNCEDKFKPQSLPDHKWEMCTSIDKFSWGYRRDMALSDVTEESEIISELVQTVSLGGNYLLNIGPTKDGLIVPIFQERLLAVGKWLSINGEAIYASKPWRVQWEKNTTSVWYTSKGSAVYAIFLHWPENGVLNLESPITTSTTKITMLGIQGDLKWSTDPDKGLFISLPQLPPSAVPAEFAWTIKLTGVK

IC50 [1]: 0.016 µM | Conc. of cmpd II ([3]; IV 1 mg/kg qdx1, 5 min): 247 ng/mL and 313 ng/mL and 259 ng/mL | Mean conc. of cmpd II ([3]; IV 1 mg/kg qdx1, 5 min): 273 ng/mL | Conc. of cmpd II ([3]; IV 1 mg/kg qdx1, 1 h): 28.7 ng/mL and 31.8 ng/mL and 34.3 ng/mL | Mean conc. of cmpd II ([3]; IV 1 mg/kg qdx1, 1 h): 31.6 ng/mL | Conc. of cmpd II ([3]; IV 1 mg/kg qdx1, 2 h): 8.58 ng/mL and 5.83 ng/mL and 9.10 ng/mL | Mean conc. of cmpd II ([3]; IV 1 mg/kg qdx1, 2 h): 7.84 ng/mL | Conc. of cmpd II ([3]; IV 1 mg/kg qdx1, 4 h): 2.76 ng/mL and 1.86 ng/mL and 3.36 ng/mL | Mean conc. of cmpd II ([3]; IV 1 mg/kg qdx1, 4 h): 2.66 ng/mL | Conc. of cmpd II ([3]; IV 1 mg/kg qdx1, 8 h): 1.56 ng/mL and 1.17 ng/mL and 1.57 ng/mL | Mean conc. of cmpd II ([3]; IV 1 mg/kg qdx1, 8 h): 1.43 ng/mL | Conc. of cmpd II ([3]; IV 1 mg/kg qdx1, 12 h): 1.04 ng/mL and 1.06 ng/mL and 2.04 ng/mL | Mean conc. of cmpd II ([3]; IV 1 mg/kg qdx1, 12 h): 1.38 ng/mL | Conc. of cmpd II in colon ([4]; IV 1 mg/kg qdx1, 1 h): 1770 ng/g and 1640 ng/g and 1930 ng/g | Mean conc. of cmpd II in colon ([4]; IV 1 mg/kg qdx1, 1 h): 1780 ng/g | Conc. of cmpd II in colon ([4]; IV 1 mg/kg qdx1, 8 h): 638 ng/g and 289 ng/g and 872 ng/g | Mean conc. of cmpd II in colon ([4]; IV 1 mg/kg qdx1, 8 h): 600 ng/g | Conc. of cmpd II in liver ([4]; IV 1 mg/kg qdx1, 1 h): 298 ng/g and 301 ng/g and 188 ng/g | Mean conc. of cmpd II in liver ([4]; IV 1 mg/kg qdx1, 1 h): 262 ng/g | Conc. of cmpd II in liver ([4]; IV 1 mg/kg qdx1, 8 h): 9.03 ng/g and 7.64 ng/g and 12.9 ng/g | Mean conc. of cmpd II in liver ([4]; IV 1 mg/kg qdx1, 8 h): 9.86 ng/g
Compound: C[C@@H]1N[C@H](CNC(=O)c2cccc3c2C(=O)c2ccccc2-3)[C@@H](O)[C@H](O)[C@@H]1O [Compound II]
Mean Green Fluorescence (GRN-HLog) ([2]; HepG2, 24 hours compound then 48 hours fucose alkyne, Alexa Fluor 488 Azide): 8433 | Fold over vehicle ([2]; mean green fluorescence, HepG2): 2.98 | Conc. of cmpd II ([3]; IV 1 mg/kg qdx1, 24 h): BQL (Below Quantitation limit <1.0 ng/m1) | Body Weight [5, 6]: 22.45 g | Tumor Volume [5, 6]: 212 mm^3 | Body Weight [5, 7]: 22.05 g | Tumor Volume [5, 7]: 224 mm^3 | Body Weight [5, 8]: 21.93 g | Tumor Volume [5, 8]: 227 mm^3 | Body Weight [5, 9]: 21.58 g | Tumor Volume [5, 9]: 247 mm^3 | Body Weight [5, 10]: 21.51 g | Tumor Volume [5, 10]: 270 mm^3 | Body Weight [5, 11]: 20.39 g | Tumor Volume [5, 11]: 326 mm^3 | Body Weight [5, 12]: 20.86 g | Tumor Volume [5, 12]: 320 mm^3 | Body Weight [5, 13]: 22.93 g | Tumor Volume [5, 13]: 211 mm^3 | Body Weight [5, 14]: 22.94 g | Tumor Volume [5, 14]: 238 mm^3 | Body Weight [5, 15]: 22.28 g | Tumor Volume [5, 15]: 277 mm^3 | Body Weight [5, 16]: 22.1 g | Tumor Volume [5, 16]: 320 mm^3 | Body Weight [5, 17]: 22.26 g | Tumor Volume [5, 17]: 348 mm^3 | Body Weight [5, 18]: 20.58 g | Tumor Volume [5, 18]: 364 mm^3 | Body Weight [5, 19]: 19.98 g | Tumor Volume [5, 19]: 416 mm^3
